Reference: US20130202653A1, “3-ARYL-3-HYDROXY-2-AMINO-PROPIONIC ACID AMIDES, 3-HETEROARYL-3-HYDROXY-2-AMINOPROPIONIC ACID AMIDES AND RELATED COMPOUNDS HAVING ANALGESIC AND/OR IMMUNO STIMULANT ACTIVITY” (Allergan, Inc., priority 2005, published 2013)
Counter-ions that a name gives are not always drawn. Like-named read-outs stand apart in the source and are kept apart here.

System: tactile allodynia in the rat Chung model
Test: Chung model: reversal of tactile allodynia (von Frey hairs) after spinal nerve ligation
Format: in vivo
Conditions: Rattus norvegicus, read-out: Peak % Pain reversal: time post dose
From the text: An art-accepted model or assay for measuring an analgesic effect of a compound in chronic pain (in particular peripheral neuropathy) is the model known as Kim and Chung 1992, Pain […], pp 355-363 (Chung model). This model involves the surgical ligation of the L5 (and optionally the L6) spinal nerves on one side in experimental animals. Rats recovering from the surgery gain weight and display a level of general activity similar to that of normal rats. However, these rats develop abnormalities of the foot, wherein the hindpaw is moderately everted and the toes are held together. More importantly, the hindpaw on the side affected by the surgery appears to become sensitive to low-threshold mechanical stimuli and will perceive pain instead of the faint sensation of touch. This sensitivity to normally non-painful touch, called “tactile allodynia”, develops within the first week after surgery and lasts for at least two months. The allodynia response includes lifting the affected hindpaw to escape from the stimulus, licking the paw and holding it in the air for many seconds. None of these responses is normally seen in the control group.
To produce the tactile allodynia, rats are anesthetized before surgery. The surgical site is shaved and prepared either with betadine or Novacaine. Incision is made from the thoracic vertebra X111 down toward the sacrum. Muscle tissue is separated from the spinal vertebra (left side) at the L4-S2 levels. The L6 vertebra is located and the transverse process is carefully removed with a small rongeur to expose the L4-L6 spinal nerves. The L5 and L6 spinal nerves are isolated and tightly ligated with 6-0 silk thread. The same procedure is done on the right side as a control, except no ligation of the spinal nerves is performed.
After a complete hemostasis is confirmed, the wounds are sutured. A small amount of antibiotic ointment is applied to the incised area, and the rat is transferred to the recovery plastic cage under a regulated heat-temperature lamp.
On the day of the experiment, at least seven days after the surgery, typically six rats per test group are administered the test drugs by intraperitoneal (i.p.) injection or oral gavage (p.o.). For i.p. administration, the compounds are formulated in H2O and given in a volume of 1 ml/kg body weight by injecting into the intraperitoneal cavity. For p.o. administration, the compounds are formulated in H2O and given in a volume of 1 ml/kg body weight using an 18-gauge, 3 inch gavage needle that is slowly inserted through the esophagus into the stomach.
Tactile allodynia is assessed via von Frey hairs, which are a series of fine hairs with incremental differences in stiffness. Rats are placed in a plastic cage with a wire mesh bottom and allowed to acclimate for approximately 30 minutes. To establish the pre-drug baseline, the von Frey hairs are applied perpendicularly through the mesh to the mid-plantar region of the rats' hindpaw with sufficient force to cause slight buckling and held for 6-8 seconds. The applied force has been calculated to range from 0.41 to 15.1 grams. If the paw is sharply withdrawn, it is considered a positive response. A normal animal will not respond to stimuli in this range, but a surgically ligated paw will be withdrawn in response to a 1-2 gram hair. The 50% paw withdrawal threshold is determined using the method of Dixon, W. J., Ann. Rev. Pharmacol. Toxicol. 20:441-462 (1980) hereby incorporated by reference. Tactile allodynia is measured prior to and 15, 30, and 60 minutes after drug administration. The post-drug threshold is compared to the pre-drug threshold and the percent reversal of tactile sensitivity is calculated based on a normal threshold of 15.1 grams.
Table 1 below indicates the degree of pain reversal obtained in the Chung model with exemplary compounds of the invention. […]

[1] = ip, 1 h, 300 μg/kg IP, peak at 60 min post dose
[2] = ip, 0.5 h, 300 μg/kg IP, peak at 30 min post dose

## N[C@@H](C(=O)N1CCCC1)[C@@H](O)c1cccnc1 (racemic) [Compound 20, DL-threo-2-Amino-3-hydroxy-3-(pyridin-3-yl)-1-(pyrrolidin-1-yl)propan-1-one dihydrochloride]
ip, 1 h, 30 μg/kg IP, peak at 60 min post dose
  inhibition in vivo at 0.03 mg/kg: 92%

## N[C@@H](C(=O)N1CCCC1)[C@@H](O)c1ccsc1 (racemic) [Compound 23, DL-threo-2-Amino-3-hydroxy-1-(pyrrolidin-1-yl)-3-(thiophen-3-yl)propan-1-one hydrochloride]
po, 1 h, 30 μg/kg PO, peak at 60 min post dose
  inhibition in vivo at 0.03 mg/kg: 100%

## N[C@@H](C(=O)N1CCCC1)[C@@H](O)c1cccs1 (racemic) [Compound 24, DL-threo-2-Amino-3-hydroxy-1-(pyrrolidin-1-yl)-3-(thiophen-2-yl)propan-1-one hydrochloride]
[1]
  inhibition in vivo at 0.3 mg/kg: 60%

## N[C@@H](C(=O)N1CCCC1)[C@@H](O)c1csc2ccccc12 (racemic) [Compound 26, hydrochloride]
[1]
  inhibition in vivo at 0.3 mg/kg: 92%

## N[C@@H](C(=O)N1CCCC1)[C@@H](O)c1ccoc1 (racemic) [Compound 27, DL-threo-2-Amino-3-(furan-3-yl)-3-hydroxy-1-(pyrrolidin-1-yl)propan-1-one hydrochloride]
[2]
  inhibition in vivo at 0.3 mg/kg: 42%

## N[C@@H](C(=O)N1CCCC1)[C@@H](O)c1ccc2ccccc2c1 (racemic) [Compound 28, DL-threo-2-Amino-3-hydroxy-3-(naphthalen-2-yl)-1-(pyrrolidin-1-yl)propan-1-one hydrochloride]
[1]
  inhibition in vivo at 0.3 mg/kg: 92%

## N[C@@H](C(=O)N1CCCC1)[C@@H](O)c1cccc2ccccc12 (racemic) [Compound 29, DL-threo-2-Amino-3-hydroxy-3-(naphthalen-1-yl)-1-(pyrrolidin-1-yl)propan-1-one hydrochloride]
[1]
  inhibition in vivo at 0.3 mg/kg: 47%

## N[C@@H](C(=O)N1CCCC1)[C@@H](O)c1ccc2ccccc2n1 (racemic) [Compound 30, DL-threo-2-Amino-3-hydroxy-1-(pyrrolidin-1-yl)-3-(quinolin-2-yl)propan-1-one dihydrochloride]
[1]
  inhibition in vivo at 0.3 mg/kg: 53%

## N[C@@H](C(=O)N1CC=CC1)[C@@H](O)c1ccnc(Cl)c1 (racemic) [Compound 34, DL-threo-2-Amino-3-(2-chloropyridin-4-yl)-3-hydroxy-1-(2H-pyrrol-1 (5H)-yl)propan-1-one dihydrochloride]
[1]
  inhibition in vivo at 0.3 mg/kg: 62%

## N[C@@H](C(=O)N1CCCCC1)[C@@H](O)c1ccncc1 (racemic) [Compound 35, DL-threo-2-Amino-3-hydroxy-3-(pyridin-4-yl)-1-(piperidin-1-yl)propan-1-one dihydrochloride]
[1]
  inhibition in vivo at 0.3 mg/kg: 92%

## CCN(CC)C(=O)[C@H](N)[C@@H](O)c1ccncc1 (racemic) [Compound 40, DL-threo-2-Amino-N,N-diethyl-3-hydroxy-3-(pyridin-4-yl)propanamide dihydrochloride]
[1]
  inhibition in vivo at 0.3 mg/kg: 47%

## N[C@@H](C(=O)N1CCCC1)[C@@H](O)c1ccnc(Cl)c1 (racemic) [Compound 41, DL-threo-2-Amino-3-(2-chloropyridin-4-yl)-3-hydroxy-1-(pyrrolidin-1-yl)propan-1-one dihydrochloride]
[1]
  inhibition in vivo at 0.3 mg/kg: 70%

## N[C@@H](C(=O)N1CCCC1)[C@@H](O)c1ccncc1Cl (racemic) [Compound 43, DL-threo-2-Amino-3-(3-chloropyridin-4-yl)-3-hydroxy-1-(pyrrolidin-1-yl)propan-1-one dihydrochloride]
[1]
  inhibition in vivo at 0.3 mg/kg: 96%

## N[C@@H](C(=O)N1CCCC1)[C@@H](O)c1ccc[nH]c1=O (racemic) [Compound 49, 3-(DL-threo-2-Amino-1-hydroxy-3-oxo-3-pyrrolidin-1-yl-propyl)-1H-pyridin-2-one hydrochloride]
ip, 1 h, 100 μg/kg IP, peak at 60 min post dose
  inhibition in vivo at 0.1 mg/kg: 85%

## O=C(N[C@@H](C(=O)N1CCCC1)[C@@H](O)c1ccncc1)c1ccccc1 (racemic) [Compound 55, N-(DL-threo-1-Hydroxy-3-oxo-1-(pyridin-4-yl)-3-(pyrrolidin-1-yl)propan-2-yl)benzamide hydrochloride]
[1]
  inhibition in vivo at 0.3 mg/kg: 58%

## COc1ccc(C(=O)N[C@@H](C(=O)N2CCCC2)[C@@H](O)c2ccncc2)cc1 (racemic) [Compound 56, N-(DL-threo-1-Hydroxy-3-oxo-1-(pyridin-4-yl)-3-(pyrrolidin-1-yl)propan-2-yl)-4-methoxy-benzamide hydrochloride]
[1]
  inhibition in vivo at 0.3 mg/kg: 67%

## O=C(N[C@@H](C(=O)N1CCCC1)[C@@H](O)c1ccncc1)c1ccc(Cl)c(Cl)c1 (racemic) [Compound 57, 3,4-Dichloro-N-(DL-threo-1-Hydroxy-3-oxo-1-(pyridin-4-yl)-3-(pyrrolidin-1-yl)propan-2-yl)benzamide]
[2]
  inhibition in vivo at 0.3 mg/kg: 51%

## O=C(N[C@@H](C(=O)N1CCCC1)[C@@H](O)c1ccncc1)OCc1ccccc1 (racemic) [Compound 58, Benzyl DL-threo-3-hydroxy-1-oxo-3-(pyridin-4-yl)-1-(pyrrolidin-1-yl)propan-2-ylcarbamate hydrochloride]
[1]
  inhibition in vivo at 0.3 mg/kg: 75%

## CCCCCCCCCC(=O)N[C@@H](C(=O)N1CCCC1)[C@@H](O)c1ccncc1 (racemic) [Compound 59, N-(DL-threo-3-hydroxy-1-oxo-3-(pyridin-4-yl)-1-(pyrrolidin-1-yl)propan-2-yl)decanamide hydrochloride]
[1]
  inhibition in vivo at 0.3 mg/kg: 92%

## CN[C@@H](C(=O)N1CCCC1)[C@@H](O)c1ccncc1 (racemic) [Compound 61, DL-threo-3-Hydroxy-2-(methylamino)-3-(pyridin-4-yl)-1-(pyrrolidin-1-yl)propan-1-one dihydrochloride]
[1]
  inhibition in vivo at 0.3 mg/kg: 64%

## CCCCCCCN[C@@H](C(=O)N1CCCC1)[C@@H](O)c1ccncc1 (racemic) [Compound 64, DL-threo-3-Hydroxy-2-(heptylamino)-3-(pyridin-4-yl)-1-(pyrrolidin-1-yl)propan-1-one dihydrochloride]
[2]
  inhibition in vivo at 0.3 mg/kg: 100%

## COc1ccc(CN[C@@H](C(=O)N2CCCC2)[C@@H](O)c2ccncc2)cc1 (racemic) [Compound 67, DL-threo-2-(4-Methoxybenzylamino)-3-hydroxy-3-(pyridin-4-yl)-1-(pyrrolidin-1-yl)propan-1-one one]
[1]
  inhibition in vivo at 0.3 mg/kg: 78%

## O=C([C@H](NCc1ccc(Cl)c(Cl)c1)[C@@H](O)c1ccncc1)N1CCCC1 (racemic) [Compound 68, DL-threo-2-(3,4-Dichlorobenzylamino)-3-hydroxy-3-(pyridin-4-yl)-1-(pyrrolidin-1-yl)propan-1-one dihydrochloride]
po, 1 h, 300 μg/kg PO, peak at 60 min post dose
  inhibition in vivo at 0.3 mg/kg: 94%

## O=C([C@H](NC1CCCCC1)[C@@H](O)c1ccncc1)N1CCCC1 (racemic) [Compound 69]
[2]
  inhibition in vivo at 0.3 mg/kg: 63%

## N[C@@H](C(=O)N1CCCC1)[C@@H](O)c1ccc(I)cc1 (racemic) [Compound 210, (±)-threo-2-Amino-3-hydroxy-3-hydroxy-3-(4-iodophenyl)-1-(pyrrolidin-1-yl)propan-1-one dihydrochloride]
[1]
  inhibition in vivo at 0.3 mg/kg: 78%

## N[C@@H](C(=O)N1CCC(F)(F)C1)[C@@H](O)c1ccncc1 (racemic) [Compound 213, (±)-threo-2-Amino-1-(3,3-difluoropyrrolidin-1-yl)-3-hydroxy-3-(pyridin-4-yl)propan-1-one dihydrochloride]
[2]
  inhibition in vivo at 0.3 mg/kg: 85%

## O=CN[C@@H](C(=O)N1CCCC1)[C@@H](O)c1ccncc1 (racemic) [Compound 216, N-((±)-threo-1-hydroxy-3-oxo-1-(pyridin-4-yl)-3-(pyrrolidin-1-yl)propan-2-yl)formamide hydrochloride]
[1]
  inhibition in vivo at 0.3 mg/kg: 100%
